From patent US20240246960A1 (adMare Therapeutics Society, priority 2021, published 2024)
One block for each molecule: values may come before it.

Experiments:
[1] = Pharmacokinetic study in mice (IV, PO); format: in vivo, mice (C57BL/6); details: Mouse Plasma; for AUC(0-t) / half-life / AUC(0-inf) / Cmax / Cmax at 5 min: female, C57BL/6; for AUC(0-inf): read-out: AUCINF—obs; for Cmax: read-out: Cmax (5 min)
Experimental: Pharmacokinetic analysis of compounds was conducted following bolus intravenous (IV) or bolus oral (PO) gavage in mice. Female mice (C57BL/6) in the 17-26 g range were weighed, and then administered an individually prescribed dose volume based on body weight of formulated compound via the intravenous (IV; tail vein) or oral gavage (PO) route (IV 5 mL/kg; PO 10 mL/kg). At selected timepoints post administration, blood was collected into vials with anticoagulant, processed for plasma by centrifugation, and then kept frozen ([…]) until analysis.
(§1) The in-vivo study plasma samples were analyzed using Ultra Performance Liquid Chromatography (UPLC) with tandem mass spectrometry (MS/MS) detection in multiple reaction monitoring (MRM) mode. A generic bioanalytical method involving plasma sample extraction and cleanup by protein precipitation with acetonitrile was used followed by UPLC-MS/MS analysis.
(§2) A brief example of a generic bioanalytical UPLC-MS/MS method used for analysis of compounds in the in-vivo study plasma samples is as follows. Plasma samples were spiked with internal standard prior to extraction and cleanup by protein precipitation with ice cold acetonitrile containing 0.1% (v/v) ammonium hydroxide at a ratio of 3:1 (solvent:plasma) and centrifuged at 18213 rcf for 15 minutes at 4° C. to pellet precipitates. Aliquots of supernatants were transferred to a 96-well plate and evaporated to dryness at 40° C. under a stream of nitrogen gas. Samples were reconstituted in 50:50 acetonitrile/10 mM ammonium acetate buffer pH 8, mixed thoroughly and analyzed using Ultra Performance Liquid Chromatography (UPLC) with tandem mass spectrometry (MS/MS) detection in multiple reaction monitoring (MRM) mode. Matrix-matched calibration standards and quality control (QC) samples were prepared in naïve C57Bl/6 mouse plasma. The UPLC column used was Waters Acquity UPLC BEH C18 1.7 um, 2.1 mm×50 mm (with guard column). The UPLC mobile phase consisted of: Mobile phase A: 10 mM ammonium acetate in Water pH 8, and Mobile phase B: Acetonitrile. Separation was accomplished with a linear gradient of 5% mobile phase B to 95% mobile phase B in 2 min, and a flow rate of 0.35 mL/min. The MS/MS data acquisition was accomplished using 3 MRM Transitions in ESI+ mode. Parent ion mass 508.37 m/z-to-Daughter ions (m/z) 117.05, 232.13 and 270.22. The quantitation of concentrations in test samples was achieved by matrix-matched calibration with normalization using an internal standard. Data acquisition and analysis were performed using Waters MassLynx software with TargetLynx application manager.
(§3) Estimation of PK parameters was performed using independent noncompartmental model method by PHOENIX WinNonlin software.

[2] = Pharmacokinetic study in rats (IV, PO); format: in vivo, Sprague-Dawley rats; details: Table B, Rat Plasma; for AUC(0-t) / half-life / AUC(0-inf) / Cmax: male, Sprague-Dawley; for AUC(0-inf): read-out: AUCINF—obs; for Cmax: read-out: Cmax (5 min)
Experimental: Pharmacokinetic studies were conducted to estimate plasma concentrations obtained after oral gavage (PO) and intravenous (IV) single administration of compounds administered to male Sprague-Dawley rats. Six (6) rats were administered for each compound, route and dose, and plasma was collected at 12 timepoints over a 24 hr period for IV, and 12 timepoints over a 48 hr period for PO. Note that plasma was collected from only 3 animals per timepoint (n=3 for timepoints up to 10 hours, and n=3 for timepoints from 16 h to end of study). Dosing volumes were 5 mL/kg for IV and 10 mL/kg for PO gavage. IV compounds for administration were in solutions, whereas PO compounds were in solution or suspension.
as §1, §2, §3

[3] = Pharmacokinetic study in dogs (IV, PO); format: in vivo, Beagle dogs; details: Table C, Dog Plasma; for AUC(0-t) / Cmax at 5 min / half-life / AUC(0-inf): male, Beagle; for AUC(0-inf): read-out: AUCINF—obs
Experimental: Pharmacokinetic studies were conducted to estimate plasma concentrations obtained after oral gavage (PO) and intravenous (IV) single administration of compounds administered to separate groups of male Beagle dogs. Three (3) dogs were administered a compound via the intravenous (IV) route at 3 mg/kg and 2.5 mL/kg, and plasma was collected at 12 timepoints over a 24-hour period. Following a 7 days washout period, the same dogs were administered the same compound via PO at 10 mg/kg and 5 mL/kg, and plasma was collected at 12 timepoints over a 48-hour period.
as §1, §2, §3

AUC—%Extrap—obs ([1]; Table A, IV, 3 mg/kg): 0.73%
Cl_obs ([1]; Table A, IV, 3 mg/kg): 21.2632 mL/min/kg
Vz_obs ([1]; Table A, IV, 3 mg/kg): 3.93714 L/kg
AUC—%Extrap—obs ([1]; Table A, PO, 10 mg/kg): 6.92%
Cl_obs ([1]; Table A, PO, 10 mg/kg): 32.236 mL/min/kg
F ([1]; Table A, PO, 10 mg/kg): 62%
Vz_obs ([1]; Table A, PO, 10 mg/kg): 9.80258 L/kg
AUC(0-t) ([1]; Table A, IV, 3 mg/kg): 2330 ng·h/mL
half-life ([1]; Table A, IV, 3 mg/kg): 2.14 h
AUC(0-inf) ([1]; Table A, IV, 3 mg/kg): 2350 ng·h/mL
Cmax ([1]; Table A, IV, 3 mg/kg): 3660 ng/mL
AUC(0-t) ([1]; Table A, PO, 10 mg/kg): 4810 ng·h/mL
half-life ([1]; Table A, PO, 10 mg/kg): 3.51 h
AUC(0-inf) ([1]; Table A, PO, 10 mg/kg): 5170 ng·h/mL
Cmax ([1]; Table A, PO, 10 mg/kg): 2380 ng/mL
AUC—%Extrap—obs ([2]; IV, 3 mg/kg): 0.48%
Cl_obs ([2]; IV, 3 mg/kg): 50.8342 mL/min/kg
Vz_obs ([2]; IV, 3 mg/kg): 4.33451 L/kg
AUC—%Extrap—obs ([2]; PO, 3 mg/kg): 16.96%
Cl_obs ([2]; PO, 3 mg/kg): 252.6873 mL/min/kg
F ([2]; PO, 3 mg/kg): 17%
Vz_obs ([2]; PO, 3 mg/kg): 85.17336 L/kg
AUC—%Extrap—obs ([2]; PO, 10 mg/kg): 19.45%
Cl_obs ([2]; PO, 10 mg/kg): 92.7505 mL/min/kg
F ([2]; PO, 10 mg/kg): 44%
Vz_obs ([2]; PO, 10 mg/kg): 34.17323 L/kg
AUC—%Extrap—obs ([2]; PO, 30 mg/kg): 28.47%
Cl_obs ([2]; PO, 30 mg/kg): 43.6063 mL/min/kg
F ([2]; PO, 30 mg/kg): 84%
Vz_obs ([2]; PO, 30 mg/kg): 19.76577 L/kg
AUC(0-t) ([2]; IV, 3 mg/kg): 979 ng·h/mL
half-life ([2]; IV, 3 mg/kg): 0.99 h
AUC(0-inf) ([2]; IV, 3 mg/kg): 984 ng·h/mL
Cmax ([2]; IV, 3 mg/kg): 1490 ng/mL
AUC(0-t) ([2]; PO, 3 mg/kg): 164 ng·h/mL
half-life ([2]; PO, 3 mg/kg): 3.89 h
AUC(0-inf) ([2]; PO, 3 mg/kg): 198 ng·h/mL
Cmax ([2]; PO, 3 mg/kg): 32.2 ng/mL
AUC(0-t) ([2]; PO, 10 mg/kg): 1450 ng·h/mL
half-life ([2]; PO, 10 mg/kg): 4.26 h
AUC(0-inf) ([2]; PO, 10 mg/kg): 1800 ng·h/mL
Cmax ([2]; PO, 10 mg/kg): 396 ng/mL
AUC(0-t) ([2]; PO, 30 mg/kg): 8200 ng·h/mL
half-life ([2]; PO, 30 mg/kg): 5.24 h
AUC(0-inf) ([2]; PO, 30 mg/kg): 11500 ng·h/mL
Cmax ([2]; PO, 30 mg/kg): 1570 ng/mL
AUC—%Extrap—obs ([3]; IV, 3 mg/kg): 2.17%
Cl_obs ([3]; IV, 3 mg/kg): 10.237 mL/min/kg
Vz_obs ([3]; IV, 3 mg/kg): 4.4105 L/kg
AUC—%Extrap—obs ([3]; PO, 10 mg/kg): 0.29%
Cl_obs ([3]; PO, 10 mg/kg): 10.148 mL/min/kg
F ([3]; PO, 10 mg/kg): 108%
Vz_obs ([3]; PO, 10 mg/kg): 5.13768 L/kg
AUC(0-t) ([3]; IV, 3 mg/kg): 4940 ng·h/mL
Cmax at 5 min ([3]; IV, 3 mg/kg): 2470 ng/mL
half-life ([3]; IV, 3 mg/kg): 5.2 h
AUC(0-inf) ([3]; IV, 3 mg/kg): 5070 ng·h/mL
AUC(0-t) ([3]; PO, 10 mg/kg): 17800 ng·h/mL
Cmax at 5 min ([3]; PO, 10 mg/kg): 2970 ng/mL
half-life ([3]; PO, 10 mg/kg): 6.03 h
AUC(0-inf) ([3]; PO, 10 mg/kg): 17800 ng·h/mL
SMILES: O=C(N[C@H]1CC[C@@H](Oc2nc(N3CCOCC3)cc3ncccc23)CC1)c1ncccn1 [Compound 123, N-((1s,4s)-4-((7-Morpholino-1,6-naphthyridin-5-yl)oxy)cyclohexyl)pyrimidine-2-carboxamide]

AUC—%Extrap—obs ([1]; Table D, IV, 3 mg/kg): 0.91%
Cl_obs ([1]; Table D, IV, 3 mg/kg): 34.092 mL/min/kg
Vz_obs ([1]; Table D, IV, 3 mg/kg): 3.32052 L/kg
AUC—%Extrap—obs ([1]; Table D, PO, 10 mg/kg): 0.39%
Cl_obs ([1]; Table D, PO, 10 mg/kg): 77.5327 mL/min/kg
F ([1]; Table D, PO, 10 mg/kg): 44%
Vz_obs ([1]; Table D, PO, 10 mg/kg): 18.51427 L/kg
AUC(0-t) ([1]; Table D, IV, 3 mg/kg): 1450 ng·h/mL
Cmax at 5 min ([1]; Table D, IV, 3 mg/kg): 2020 ng/mL
half-life ([1]; Table D, IV, 3 mg/kg): 1.13 h
AUC(0-inf) ([1]; Table D, IV, 3 mg/kg): 1470 ng·h/mL
AUC(0-t) ([1]; Table D, PO, 10 mg/kg): 2140 ng·h/mL
Cmax at 5 min ([1]; Table D, PO, 10 mg/kg): 1240 ng/mL
half-life ([1]; Table D, PO, 10 mg/kg): 2.76 h
AUC(0-inf) ([1]; Table D, PO, 10 mg/kg): 2150 ng·h/mL
SMILES: O=C(N[C@H]1CC[C@@H](Oc2nc(N3CCOCC3)cc3ncccc23)CC1)c1cc[nH]c1 [Compound 140, N-((1s,4s)-4-((7-morpholino-1,6-naphthyridin-5-yl)oxy)cyclohexyl)-1H-pyrrole-3-carboxamide]
